From patent US20050276867A1, “Stabilized compositions comprising a therapeutically active agent and an oxidizing preservative” (ALLERGAN, INC., priority 2004, published 2005)

What was measured:
[1] = for Stabilized Chlorine Dioxide Concentration, 0 Days / Stabilized Chlorine Dioxide Concentration, 7 Days / Stabilized Chlorine Dioxide Concentration, 14 Days: ingredient added at ppm shown (100) to brimonidine composition; for Stabilization of chlorine dioxide by the excipient (in words): summary of Table 1
Experimental: Each of the excipients was added, in the amounts shown, to a proprietary composition comprising brimonidine as a therapeutically active agent.

[2] = chlorine dioxide to ClO2-; permanganate to manganese dioxide; cited from earlier work

SMILES | Stabilized Chlorine Dioxide Concentration, 0 Days [1] | Stabilized Chlorine Dioxide Concentration, 7 Days [1] | Stabilized Chlorine Dioxide Concentration, 14 Days [1] | Stabilization of chlorine dioxide by the excipient (in words) [1] | Standard reduction potential [2]
O=C(O)CN(CCN(CC(=O)O)CC(=O)O)CC(=O)O [EDTA] | 44 ppm | 2 ppm | 0 ppm | do not stabilize the chlorine dioxide | 
NCCN [Ethylene diamine] |  |  |  | do not stabilize the chlorine dioxide | 
O=C([O-])/C(O)=C(\O)C(=O)[O-].[Na+].[Na+] [Sodium Dihydroxyfurmarate] | 37 ppm | 13 ppm | 0 ppm |  | 
O=C[O-].[Na+] [Sodium Formate] | 42 ppm | 40 ppm | 36 ppm |  | 
CC(O)C(=O)[O-].[Na+] (centres unmarked) [Sodium Lactate] | 45 ppm | 40 ppm | 37 ppm |  | 
O=C([O-])C(=O)[O-].[Na+].[Na+] [Sodium Oxalate] | 39 ppm | 38 ppm | 35 ppm | ineffective | 
CC(=O)C(=O)[O-].[Na+] [Sodium Pyruvate] |  |  |  | ineffective | 
[O][Cl+][O-] [chlorine dioxide] |  |  |  |  | 1.07 V
